# Results from patent publication US20140296153A1, “Oligodendrocyte Differentiation” (priority 2011, published 2014).
# What was measured:
# Assay type in all cases: cell-based, mouse
# [1] = tested on: Olig2; assay: Immunocytochemistry for Olig2; settings: Hp treatment
# Procedure: Cells were fixed for 30 minutes in 4% paraformaldehyde in phosphate-buffered saline (PBS), permeabilized and blocked for non-specific binding sites for 1 h with 0.25% Triton X-100 (Sigma) and 3% bovine serum albumin (BSA, Sigma) dissolved in PBS. Cells were then subsequently incubated overnight at 4° C. with the following antibodies: rabbit polyclonal anti-CB1R (1:200, Proteimax), mouse monoclonal anti-nestin (1:200, Chemicon, Temecula, Calif., USA), mouse monoclonal anti-GFAP (1:500, Cell Signaling Technology, Danvers, Mass., USA) and rabbit polyclonal anti-Olig2 (1:200, Millipore, Billerica, Mass., USA). Thereafter, the cover slips were rinsed in PBS and incubated for 1 h at RT with the appropriate secondary antibodies: anti-rabbit IgG labeled with Alexa Fluor 488 (1:200) or anti-mouse IgG labeled with Alexa Fluor 594 (1:200) (both from Molecular Probes). After rinsing with PBS, cell preparations were incubated 5 min at RT with Hoechst 33342 (2 μg/mL, Molecular Probes) in PBS, for nuclear staining. Finally, the preparations were mounted using Dakocytomation fluorescent medium (Dakocytomation, Carpinteria, Calif., USA). Fluorescence images were recorded using a digital camera coupled to an Axioskop microscope (Carl Zeiss).
# [2] = tested on: SVZ cells; assay: SVZ neurosphere forming assay (primary neurospheres)
# Procedure: Neurosphere forming and self-renewal assays were performed on SVZ cells seeded at clonal density, 2500 cells per well in 24-well cell culture plates in SFM containing 5 ng/ml EGF and 2.5 ng/ml FGF-2 and supplemented or not (control) with 1 μM Hp or 50 ng.ml^−1 hepatocyte growth factor (carrier free recombinant human HGF, R&D Systems, Lille, France). After 6 days, the numbers of primary neurospheres were determined. For self-renewal assay, neurospheres were collected, dissociated as single cells and seeded in SFM containing 5 ng/ml EGF and 2.5 ng/ml FGF-2 in 24 well plates. After 6 days, the number of secondary neurospheres was counted.
# Fluorescence images were recorded using an LSM 510 Meta confocal microscope or an Axioskop 2 Plus fluorescence microscope (both from Carl Zeiss). In all experiments, measurements were performed in the border of SVZ neurospheres where migrating cells form a cell monolayer. For the SVZ neurosphere forming and self-renewal assays the experiments were replicated in five independent culture preparations and each experimental condition was assayed in four different coverslips. For the remaining experiments, each condition was assayed in three different coverslips, and except where otherwise specified, the experiments were replicated in three independent culture preparations. Percentages of TUNEL or BrdU immunoreactive cells in SVZ cell cultures were calculated from cell counts in five independent microscopic fields in each coverslip with a x40 objective (approximately 200 cells per field). Software used was Axiovision, release 4.6 (Carl Zeiss). For SCCl experiments, the percentage of oligodendrocytic-like responding cells (with a Thromb/Hist ratio above 1.3) was calculated on the basis of one microscopic field per coverslip, containing approximately 100 cells (magnification, ×40).
# Neural stem-like cells are characterized in vitro by both their capacity to give rise to neurospheres and to self-renew when cultured in the presence of mitogens.
# [3] = tested on: SVZ cells; assay: Single cell calcium imaging (SCCI) of oligodendrocytic differentiation; settings: 7 days
# Procedure: To investigate the influence of Hp on oligodendrocytic differentiation, SVZ neurospheres were allowed to develop for 7 days Hp (100 nm, 1 μM), in serum free medium devoid of growth factor at 37° C.
# To determine the functional differentiation pattern of SVZ cells, we analyzed the variations of intracellular calcium-free levels ([Ca^2+]i) in single cells following stimulation with 50 mM KCl, 100 μM histamine (Sigma-Aldrich, St. Louis, Mo. USA) and 0.1 U/ml thrombin (Sigma-Aldrich) stimulation. KCl depolarization causes an increase in [Ca^2+]i in neurons, whereas stimulation with histamine leads to an increase in [Ca^2+]i in stem/progenitor cells, while thrombin leads to an increase in [Ca^2+]i in oligodendrocytes. SVZ cultures were loaded for 40 minutes with 5 μM Fura—2/AM (Molecular Probes, Carlsbad, Calif., USA), 0.1% fatty acid-free BSA, and 0.02% pluronic acid F-127 (Molecular Probes) in Krebs solution (132 mM NaCl, 4 mM KCl, 1.4 mM MgCl2, 1 mM CaCl2, 6 mM glucose, 10 mM HEPES, pH 7.4), in an incubator with 5% CO2 and 95% atmospheric air at 37° C. After a 10-minute postloading period at room temperature (RT) in the same medium without Fura-2/AM and pluronic acid, to obtain a complete hydrolysis of the probe, the glass coverslip was mounted on an RC-20 chamber in a PH3 platform (Warner Instruments, Hamden, Conn., USA) on the stage of an inverted fluorescence microscope (Axiovert 200, Carl Zeiss). […] The variations of [Ca^2+]i were evaluated by quantifying the ratio of the fluorescence emitted at 510 nm following alternate excitation (750 msec) at 340 and 380 nm, using a Lambda DG4 apparatus (Sutter Instrument, Novato, Calif., USA) and a 510 nm band-pass filter (Carl Zeiss) before fluorescence acquisition with a x40 objective and a CoolSNAP digital camera (Roper Scientific, Trenton, N.J., USA). […] KCl, histamine, and thrombin peaks given by the normalized ratios of fluorescence at 340/380 nm, at the proper time periods, were used to calculate the ratios of the responses to histamine/KCl (Hist/KCl-neuronal-like profile) and to thrombin/histamine (Throm/Hist-oligodendrocytic-like profile).
# Fluorescence images were recorded using an LSM 510 Meta confocal microscope or an Axioskop 2 Plus fluorescence microscope (both from Carl Zeiss). […] Percentages of TUNEL or BrdU immunoreactive cells in SVZ cell cultures were calculated from cell counts in five independent microscopic fields in each coverslip with a x40 objective (approximately 200 cells per field). […] For SCCl experiments, the percentage of oligodendrocytic-like responding cells (with a Thromb/Hist ratio above 1.3) was calculated on the basis of one microscopic field per coverslip, containing approximately 100 cells (magnification, ×40). […]
smiles,measurement,setting,value
"CC(C)C[C@H](NC(=O)[C@H](Cc1ccccc1)NC(=O)[C@H](CCCCN)NC(=O)[C@H](Cc1ccccc1)NC(=O)[C@H](CC(N)=O)NC(=O)[C@@H](NC(=O)[C@@H]1CCCN1)C(C)C)C(=O)N[C@@H](CO)C(=O)N[C@@H](Cc1cnc[nH]1)C(=O)O [Hp, PVNFKFLSH]",number of Olig2-positive cells,[1],increased
same,decrease of the number of primary neurospheres,[2]; 1 μm Hp during 6 days,15%
same,number of primary neurospheres (control 100%),"[2]; Hp 1 μM, 6 days, SFM with 5 ng/ml EGF and 2.5 ng/ml FGF-2",85.13±3.86%
same,cells responding with a Throm/Hist ratio above 1.3 (oligodendrocyte-like responding cells),"[3]; Hp 100 nM, 9 coverslips",15.84±3.85%
same,cells responding with a Throm/Hist ratio above 1.3 (oligodendrocyte-like responding cells),"[3]; Hp 1 μM, 12 coverslips",14.51±4.09%
same,cells responding with a Throm/Hist ratio above 1.3 (oligodendrocyte-like responding cells),"[3]; Hp treatment (100 nM or 1 μM), rounded",around 15%
